Key:
ZSF1 obese rats [1] = assay: Myocardial nicotinamide and NAD+ levels by mass spectrometry, cardiometabolic syndrome model; assay type: in vivo, rat; conditions: 40 mM nicotinamide, with or without 3 mM spermidine, in drinking water for 14 weeks
Procedure: Cardiometabolic syndrome model: ZSF1 lean and obese rats of both genders were purchased at the age of 5 weeks from the Charles River Laboratories (Kingston, USA). Eight-week-old ZSF1 obese rats were divided into three weight-matched and equally sized/gender-balanced groups: group 1 received regular drinking water (non-treated control), group 2 received regular drinking water supplemented with 40 mM nicotinamide (i.e. 0.5% w/v), and group 3 was administered the combination of 40 mM nicotinamide and 3 mM spermidine (of synthetical origin) in drinking water for a period of 14 weeks. Water as well as food intake were monitored regularly. Age-matched untreated ZSF1 obese and lean rats served as controls. The mass spectrometric metabolomic analysis of nicotinamide and NAD^+ in rat myocardium was performed as described previously ([…]., et al. Aging (Albany NY) 11(2019):4783-4800). About 30 mg of tissue was weighed and solubilized in tubes with ceramic beads using 1 ml of cold lysate buffer (methanol:water ratio was 9:1; at -20° C.). Tissue samples were then homogenized three times for 20 s at 5.500 rpm using a Precellys 24 tissue homogenizer followed by centrifugation for 10 min at 15.000 g and 4° C. […] Peak detection and integration of the analytes were performed using the Agilent Mass Hunter quantitative software (B.07.01). […]

Aged C57BL/6J male mice [2] = assay: Diastolic function by echocardiography, aging model; assay type: in vivo, mouse; conditions: 24 mM nicotinamide, with or without 3 mM spermidine, in drinking water for 4 months, FIG. 2a
Procedure: Aging model: Aged C57BL/6J male mice were purchased from the Charles River Laboratories (Sulzfeld, Germany) at the age of 18 months and fed standard chow. Supplementation of 24 mM nicotinamide (i.e. 0.3% w/v, changed two times per week) and of spermidine (i.e. 3 mM final concentration at pH 7.2, changed two times per week) in the regular drinking water was conducted at 20 months of age for a period of 4 months. […] Transthoracic echocardiography was performed using high resolution micro-imaging system equipped with a 24- and 55-MHz linear array transducers for rats and mice, respectively, as described (Eisenberg et al. (2016), Nat Med 22(12): 1428-1438). Briefly, lightly anesthetized mice (0.5% isoflurane and 99.5% 02) were placed in the supine position on a temperature-controlled heating platform to maintain their body temperature at 37° C. Diastolic function was assessed using pulsed-wave and tissue Doppler imaging to determine the ratio between peak early-filling velocity of transmitral flow (E) and the corresponding mitral valve annulus velocity (e′), respectively.

[3] = tested on: Dahl salt-sensitive male rats; assay: Diastolic function by hemodynamic pressure-volume measurement, salt-induced hypertensive heart disease model; assay type: in vivo, rat; conditions: Dahl rats on high-salt diet; 40 mM nicotinamide in drinking water for 12 weeks; FIG. 2b
From the text: Salt-induced hypertensive heart disease model: Dahl salt-sensitive male rats (n=24) were purchased at the age of 4 weeks from the Charles River Laboratories (Kingston, USA). Eight rats were fed the low-salt diet containing 0.3% NaCl (AIN-76A, Research Diets, Inc. USA) throughout the experiment and served as a healthy control group. Low-salt diet was fed also to the remaining 16 Dahl rats until the age of 7 weeks, when the diet was switched to a high-salt diet (AIN-76A with 8% NaCl, Research Diets, Inc. USA), and the rats were divided into two weight-matched cohorts each consisting of two equally sized groups (n=8 animals per group); group 1 received regular drinking water (non-treated control), while group 2 received regular drinking water supplemented with 40 mM nicotinamide (i.e. 0.5% w/v) for a period of 12 weeks. […] The heart rate was monitored by an electrocardiogram (Animal Bio Amp, FE136) and kept at 350-400 bpm throughout the experiment. […] Signals were continuously acquired (MPVS PL3508 PowerLab 8/35), digitized at 2 kHz (ML880 PowerLab 16/30), and analyzed offline (LabChart 8 Pro). After a stabilization period of 10 min, left ventricular end-diastolic pressure (EDP), a baseline parameter of diastolic function, was measured and aver-aged from ten consecutive beats, with ventilation suspended at end-expiration. […]

ZSF1 obese rats [4] = assay: Diastolic function by echocardiography, cardiometabolic syndrome model; assay type: in vivo, rat; conditions: 40 mM nicotinamide, with or without 3 mM spermidine, in drinking water for 14 weeks, FIG. 2c
Procedure: Cardiometabolic syndrome model: ZSF1 lean and obese rats of both genders were purchased at the age of 5 weeks from the Charles River Laboratories (Kingston, USA). Eight-week-old ZSF1 obese rats were divided into three weight-matched and equally sized/gender-balanced groups: group 1 received regular drinking water (non-treated control), group 2 received regular drinking water supplemented with 40 mM nicotinamide (i.e. 0.5% w/v), and group 3 was administered the combination of 40 mM nicotinamide and 3 mM spermidine (of synthetical origin) in drinking water for a period of 14 weeks. Water as well as food intake were monitored regularly. Age-matched untreated ZSF1 obese and lean rats served as controls. Transthoracic echocardiography was performed using high resolution micro-imaging system equipped with a 24- and 55-MHz linear array transducers for rats and mice, respectively, as described (Eisenberg et al. (2016), Nat Med 22(12): 1428-1438). […] Diastolic function was assessed using pulsed-wave and tissue Doppler imaging to determine the ratio between peak early-filling velocity of transmitral flow (E) and the corresponding mitral valve annulus velocity (e′), respectively. This measurement was conducted according to the method of item 2.1.1, with the exception that the rats were lightly anesthetized with 1-2% isoflurane and 98-99% 02.

Aged C57BL/6J male mice [5] = assay: Cardiac hypertrophy by gravimetry, aging model; assay type: in vivo, mouse; conditions: 24 mM nicotinamide, with or without 3 mM spermidine, in drinking water for 4 months, FIG. 3a
Procedure: Aging model: Aged C57BL/6J male mice were purchased from the Charles River Laboratories (Sulzfeld, Germany) at the age of 18 months and fed standard chow. Supplementation of 24 mM nicotinamide (i.e. 0.3% w/v, changed two times per week) and of spermidine (i.e. 3 mM final concentration at pH 7.2, changed two times per week) in the regular drinking water was conducted at 20 months of age for a period of 4 months. […] The heart was harvested and weighed, obtaining the heart weight (HW). For normalisation, the weight was subsequently divided by the length of the left tibia bone (TL), resulting in the ratio HW/TL.

[6] = tested on: Dahl salt-sensitive male rats; assay: Cardiac hypertrophy by gravimetry, salt-induced hypertensive heart disease model; assay type: in vivo, rat; conditions: Dahl rats on high-salt diet; 40 mM nicotinamide in drinking water for 12 weeks; FIG. 3b
From the text: Salt-induced hypertensive heart disease model: Dahl salt-sensitive male rats (n=24) were purchased at the age of 4 weeks from the Charles River Laboratories (Kingston, USA). Eight rats were fed the low-salt diet containing 0.3% NaCl (AIN-76A, Research Diets, Inc. USA) throughout the experiment and served as a healthy control group. Low-salt diet was fed also to the remaining 16 Dahl rats until the age of 7 weeks, when the diet was switched to a high-salt diet (AIN-76A with 8% NaCl, Research Diets, Inc. USA), and the rats were divided into two weight-matched cohorts each consisting of two equally sized groups (n=8 animals per group); group 1 received regular drinking water (non-treated control), while group 2 received regular drinking water supplemented with 40 mM nicotinamide (i.e. 0.5% w/v) for a period of 12 weeks. The heart was harvested and weighed, obtaining the heart weight (HW). For normalisation, the weight was subsequently divided by the length of the left tibia bone (TL), resulting in the ratio HW/TL.

ZSF1 obese rats [7] = assay: Cardiac hypertrophy by gravimetry, cardiometabolic syndrome model; assay type: in vivo, rat; conditions: 40 mM nicotinamide, with or without 3 mM spermidine, in drinking water for 14 weeks, FIG. 3c
Procedure: Cardiometabolic syndrome model: ZSF1 lean and obese rats of both genders were purchased at the age of 5 weeks from the Charles River Laboratories (Kingston, USA). Eight-week-old ZSF1 obese rats were divided into three weight-matched and equally sized/gender-balanced groups: group 1 received regular drinking water (non-treated control), group 2 received regular drinking water supplemented with 40 mM nicotinamide (i.e. 0.5% w/v), and group 3 was administered the combination of 40 mM nicotinamide and 3 mM spermidine (of synthetical origin) in drinking water for a period of 14 weeks. Water as well as food intake were monitored regularly. Age-matched untreated ZSF1 obese and lean rats served as controls. The heart was harvested and weighed, obtaining the heart weight (HW). For normalisation, the weight was subsequently divided by the length of the left tibia bone (TL), resulting in the ratio HW/TL.

[8] = tested on: Dahl salt-sensitive male rats; assay: Exercise capacity by exercise calorimetry, salt-induced hypertensive heart disease model; assay type: in vivo, rat; conditions: Dahl rats on high-salt diet; 40 mM nicotinamide in drinking water for 12 weeks; treadmill peak effort; FIG. 4a
From the text: Salt-induced hypertensive heart disease model: Dahl salt-sensitive male rats (n=24) were purchased at the age of 4 weeks from the Charles River Laboratories (Kingston, USA). Eight rats were fed the low-salt diet containing 0.3% NaCl (AIN-76A, Research Diets, Inc. USA) throughout the experiment and served as a healthy control group. Low-salt diet was fed also to the remaining 16 Dahl rats until the age of 7 weeks, when the diet was switched to a high-salt diet (AIN-76A with 8% NaCl, Research Diets, Inc. USA), and the rats were divided into two weight-matched cohorts each consisting of two equally sized groups (n=8 animals per group); group 1 received regular drinking water (non-treated control), while group 2 received regular drinking water supplemented with 40 mM nicotinamide (i.e. 0.5% w/v) for a period of 12 weeks. Rats were subjected to peak effort on a closed-chamber treadmill at an inclination of 10° coupled to a gas analyzer (CaloTreadmill). […] Calorimetric parameters, such as relative oxygen consumption (ΔVO2) and carbon dioxide production (ΔVCO2) were continuously measured at 0.2 Hz intervals during treadmill running. Maximal oxygen consumption (VO2max) and run distance were determined at the point at which oxygen uptake reached a plateau during exhaustive workout/exercise.

ZSF1 obese rats [9] = assay: Exercise capacity by exercise calorimetry, cardiometabolic syndrome model; assay type: in vivo, rat; conditions: 40 mM nicotinamide, with or without 3 mM spermidine, in drinking water for 14 weeks, treadmill peak effort, FIG. 4b
Procedure: Eight-week-old ZSF1 obese rats were divided into three weight-matched and equally sized/gender-balanced groups: group 1 received regular drinking water (non-treated control), group 2 received regular drinking water supplemented with 40 mM nicotinamide (i.e. 0.5% w/v), and group 3 was administered the combination of 40 mM nicotinamide and 3 mM spermidine (of synthetical origin) in drinking water for a period of 14 weeks. Water as well as food intake were monitored regularly. Age-matched untreated ZSF1 obese and lean rats served as controls. Rats were subjected to peak effort on a closed-chamber treadmill at an inclination of 10° coupled to a gas analyzer (CaloTreadmill). […] The exercise session ended at the maximal fatigue, which was defined as the lack of ability to maintain running speed despite being in contact with the electric shock for more than 5 seconds. Calorimetric parameters, such as relative oxygen consumption (ΔVO2) and carbon dioxide production (ΔVCO2) were continuously measured at 0.2 Hz intervals during treadmill running. Maximal oxygen consumption (VO2max) and run distance were determined at the point at which oxygen uptake reached a plateau during exhaustive workout/exercise.

[10] = tested on: Dahl salt-sensitive male rats; assay: Lung congestion by gravimetry, salt-induced hypertensive heart disease model; assay type: in vivo, rat; conditions: Dahl rats on high-salt diet; 40 mM nicotinamide in drinking water for 12 weeks; FIG. 5a
From the text: Salt-induced hypertensive heart disease model: Dahl salt-sensitive male rats (n=24) were purchased at the age of 4 weeks from the Charles River Laboratories (Kingston, USA). Eight rats were fed the low-salt diet containing 0.3% NaCl (AIN-76A, Research Diets, Inc. USA) throughout the experiment and served as a healthy control group. Low-salt diet was fed also to the remaining 16 Dahl rats until the age of 7 weeks, when the diet was switched to a high-salt diet (AIN-76A with 8% NaCl, Research Diets, Inc. USA), and the rats were divided into two weight-matched […] groups (n=8 animals per group); group 1 received regular drinking water (non-treated control), while group 2 received regular drinking water supplemented with 40 mM nicotinamide (i.e. 0.5% w/v) for a period of 12 weeks.
(§1) The lung was harvested and weighed, obtaining the lung weight (LW). For normalisation, the weight was subsequently divided by the length of the left tibia bone (TL), resulting in the ratio LW/TL.

ZSF1 obese rats [11] = assay: Lung congestion by gravimetry, cardiometabolic syndrome model; assay type: in vivo, rat; conditions: 40 mM nicotinamide, with or without 3 mM spermidine, in drinking water for 14 weeks, FIG. 5b
Procedure: (§2) Cardiometabolic syndrome model: ZSF1 lean and obese rats of both genders were purchased at the age of 5 weeks from the Charles River Laboratories (Kingston, USA). Eight-week-old ZSF1 obese rats were divided into three weight-matched and equally sized/gender-balanced groups: group 1 received regular drinking water (non-treated control), group 2 received regular drinking water supplemented with 40 mM nicotinamide (i.e. 0.5% w/v), and group 3 was administered the combination of 40 mM nicotinamide and 3 mM spermidine (of synthetical origin) in drinking water for a period of 14 weeks. Water as well as food intake were monitored regularly. Age-matched untreated ZSF1 obese and lean rats served as controls.
as §1
This measurement was conducted according to the method of item 2.4.1.

ZSF1 obese rats [12] = assay: Fasting glucose determination, cardiometabolic syndrome model; assay type: in vivo, rat; conditions: 10 weeks of treatment (8 weeks vs. 18 weeks of age), tail vein blood, FIG. 6a
Procedure: as §2
The basal fasting blood glucose level was determined by collecting a drop of blood from the tail vein. Blood droplet was applied to a test strip that was inserted into a glucose analyzer (glucometer, Accu-Chek Performa). The sampling and measurement was conducted at the age of 8 weeks (baseline) and at the age of 18 weeks. The fold-change was calculated by dividing the values form 18-weeks old animals and 8-weeks old animals.

ZSF1 obese rats [13] = assay: Fasting insulin determination (ELISA), cardiometabolic syndrome model; assay type: in vivo, rat; conditions: 10 weeks of treatment (8 weeks vs. 18 weeks of age), plasma, 6-h fasted, FIG. 6b
Procedure: as §2
Fasted blood samples were collected from the clavicular vena plexus/jugular vein of 6-h fasted (6 AM-12 AM) and lightly anesthetized rats (2% isoflurane and 98% O2), whose body temperature was maintained at 37° C. using a temperature-controlled heating platform. Fasting insulin was measured in plasma using ultrasensitive rat ELISA kits (Crystal Chem) according to the manufacturer's protocol. The sampling and measurement was conducted at the age of 8 weeks (baseline) and at the age of 18 weeks. The fold-change was calculated by dividing the values form 18-weeks old animals and 8-weeks old animals.

[14] = literature: Gale et al. 2004, Chen et al. 2015, Poyan et al. 2018; cited from earlier work
obese rats = assay: Intraperitoneal glucose tolerance test, spermidine alone in obese rats; assay type: in vivo, rat; conditions: 10 weeks of spermidine alone, 1 g/kg glucose i.p., 12-h fasted, age 18 weeks, compared with control obese rats, FIG. 8
Procedure: Intraperitoneal glucose tolerance test was performed at 6 AM from 12-h fasted rats. During the experiment, rats were singly housed in empty cages without food, water or bed-ding. The basal fasting blood glucose level was determined by collecting a drop of blood from the tail vein. Blood droplet was applied onto a test strip that was inserted into a glucose analyzer (glucometer, Accu-Chek Performa). Rats were then injected intraperitoneally with 1 g of glucose per kg fasting body mass, and blood glucose levels were determined 15, 30, 60, 90 and 120 min after glucose. The sampling and measurement were conducted at the age of 18 weeks.

Row | SMILES | myocardial level of nicotinamide (NAM) (ZSF1 obese rats [1]; FIG. 1 left) | myocardial level of nicotinamide adenine dinucleotide+ (NAD+) (ZSF1 obese rats [1]; FIG. 1 right) | quotient E/e' (measure of diastolic dysfunction) (Aged C57BL/6J male mice [2]) | left ventricular end-diastolic pressure (EDP), marker for diastolic dysfunction [3] | quotient E/e' (measure of diastolic dysfunction) (ZSF1 obese rats [4]) | heart weight-to-tibia length ratio (HW/TL), marker of cardiac hypertrophy (Aged C57BL/6J male mice [5]) | heart weight-to-tibia length ratio (HW/TL), marker of cardiac hypertrophy [6] | heart weight-to-tibia length ratio (HW/TL), marker of cardiac hypertrophy (ZSF1 obese rats [7]) | maximal oxygen consumption (VO2max) [8] | run distance [8] | maximal oxygen consumption (VO2max) (ZSF1 obese rats [9]) | run distance (ZSF1 obese rats [9]) | ratio LW/TL (lung weight to tibia length), measure of lung congestion [10] | ratio LW/TL (lung weight to tibia length), measure of lung congestion (ZSF1 obese rats [11]) | fasting glucose level (fold-change 18 weeks vs 8 weeks) (ZSF1 obese rats [12]) | fasting insulin level (fold-change 18 weeks vs 8 weeks) (ZSF1 obese rats [13]) | tolerability at high doses during chronical administration [14] | glucose clearance curve (also as AUC) (obese rats)
1 | NC(=O)c1cccnc1 [nicotinamide] | significantly increased | significantly increased | reduced | reduced | reduced | reduced | reduced to levels similar to the control | reduced | increased | increased | increased | increased | decrease | compensated this effect | increased | increased | well-tolerated | 
2 | NCCCCNCCCN [spermidine] |  |  |  |  |  |  |  |  |  |  |  |  |  |  | no significant influence | no significant influence |  | did not change
